Source: patent US20140194388A1, “COMBINATION THERAPY OF HSP90 INHIBITORY COMPOUNDS WITH CHK INHIBITORS” (SYNTA PHARMACEUTICALS CORP., priority 2011, published 2014)

Tests used:
B-raf = settings: cited from earlier work
CHK1 = test: Western blotting, CHK1 level / CHK activity after ganetespib (FIG. 1); type: cell-based, human
Protocol: (§1) The LNCaP, 22Rv1, DU145 and PC3 human prostate cancer cell lines were all purchased from the American Type Culture Collection (Manassas, Va., USA). Cells were maintained and cultured according to standard techniques at 37° C. in 5% (v/v) CO2 using culture medium recommended by the supplier. All primary antibodies were purchased from Cell Signaling Technology (Beverly, Mass., USA) with the exception of RAF1 (Santa Cruz Biotechnology, Santa Cruz, Calif., USA), p-EGFR (Tyr1068) (Invitrogen, Carlsbad, Calif., USA) and actin (GE Healthcare, UK). The Hsp90 inhibitors ganetespib and 17-AAG were synthesized at Synta Pharmaceuticals Corp.
(§2) Prostate cancer cell lines were lysed in RIPA buffer (Cell Signaling Technology, Beverly, Mass. USA). Lysates were clarified by centrifugation and equal amounts of protein resolved by SDS-PAGE before transfer to nitrocellulose membranes. Membranes were blocked with 5% skim milk in TBS with 0.5% Tween and immunoblotted with indicated antibodies. Antigen-antibody complexes were visualized using an Odyssey system (LI-COR, Lincoln, Nebr., USA).

CDK1 = test: Western blotting, CDK1 level after ganetespib (FIG. 1); type: cell-based, human
Protocol: as §1, §2

In the case of C=CCNC1=C2C[C@@H](C)C[C@H](OC)[C@H](O)[C@@H](C)/C=C(\C)[C@H](OC(N)=O)[C@@H](OC)/C=C\C=C(/C)C(=O)NC(=CC1=O)C2=O [Compound 17AAG], the “degradation of B-raf” value (B-raf; cancer cells treated with 17AAG) is given as “stimulate the degradation of B-raf”, the “sensitivity of B-raf mutants E586K and L597V to degradation” value (B-raf; cells treated with 17AAG) is given as “not sensitive to degradation” and the “rate of B-raf degradation, V600E mutant vs wild type” value (B-raf; melanoma cell line A375 (V600E) vs CHL cells (wild type B-raf)) is given as “degraded more rapidly than in CHL cells”. For the same compound, the “rate of degradation of B-raf mutants V600D, G469A, G469E, G596R, G466V, G594V” value (B-raf; transvected into COS cells) was “degraded more rapidly than wild type B-raf”.

With CC(C)c1cc(-c2nnc(O)n2-c2ccc3c(ccn3C)c2)c(O)cc1O [ganetespib, 3-(2,4-DIHYDROXY- 5-ISOPROPYL- PHENYL)-4-(1- METHYL-INDOL- 5-YL)-5- HYDROXY- [1,2,4]TRIAZOLE] the “disruption of CHK activity by inhibition of Hsp90 activity” value (CHK1) was “highly effective in disrupting CHK activity”, the “effect on stability of the DNA damage checkpoint CHK1” value (CHK1; FIG. 1) was “destabilizes” and the “effect on stability of the master cell cycle regulator CDK1” value (CDK1) was “destabilizes”.
